Here are results for 6 cell lines from the supplement of paper PMC10307832.

What all share (test): relative viability (nuclei count vs DMSO), 5 days (fraction); higher = more cells survive
Compound in the assay “IU1-47 + Luminespib”: CC1=CC(=C(N1C2=CC=C(C=C2)Cl)C)C(=O)CN3CCCCC3 [IU1-47] + CCNC(=O)c1noc(-c2cc(C(C)C)c(O)cc2O)c1-c1ccc(CN2CCOCC2)cc1 [Luminespib] (partner 0.01 µM)
The method in brief: (§1)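 Five library-drug doses in √10 steps were combined with a fixed anchor-drug dose, or a single drug was given alone, by pin tool to lung cancer cell lines in 1536-well plates the day after seeding. Nuclei were stained and counted after 5 days. Relative viability is the nuclei count in treated wells over that in vehicle wells, taken as the median of duplicate plates.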

Compound in the assay “IU1-47 + Crizotinib”: CC1=CC(=C(N1C2=CC=C(C=C2)Cl)C)C(=O)CN3CCCCC3 [IU1-47] + C[C@@H](Oc1cc(-c2cnn(C3CCNCC3)c2)cnc1N)c1c(Cl)ccc(F)c1Cl [Crizotinib] (partner 1 µM)
An outline of the steps:
as §1

Compound in the assay “IU1-47 + Pemetrexed”: CC1=CC(=C(N1C2=CC=C(C=C2)Cl)C)C(=O)CN3CCCCC3 [IU1-47] + Nc1nc2[nH]cc(CCc3ccc(C(=O)N[C@@H](CCC(=O)O)C(=O)O)cc3)c2c(=O)[nH]1 [Pemetrexed] (partner 0.2 µM)
The method in brief: as §1

Compound in the assay “FG-4592 + OSI-027”: Cc1nc(C(=O)NCC(=O)O)c(O)c2ccc(Oc3ccccc3)cc12 [FG-4592] + COc1cccc2cc(-c3nc([C@H]4CC[C@H](C(=O)O)CC4)n4ncnc(N)c34)[nH]c12 [OSI-027] (partner 0.5 µM)
An outline of the steps: as §1

As to PC-14, the relative viability in the assay with IU1-47 + Luminespib (first compound 0.08 µM) came out at 0.185; with IU1-47 + Luminespib (first compound 0.253 µM), 0.168; in the assay with IU1-47 + Luminespib (first compound 0.8 µM) it was 0.186; in the assay with IU1-47 + Luminespib (first compound 2.53 µM), 0.151; with IU1-47 + Luminespib (first compound 8 µM) it was 0.179; in the assay with IU1-47 + Crizotinib (first compound 0.08 µM), 0.921. Also, the relative viability stood at 0.888 in the assay with IU1-47 + Crizotinib (first compound 0.253 µM); 0.845 with IU1-47 + Crizotinib (first compound 0.8 µM); 0.999 in the assay with IU1-47 + Crizotinib (first compound 2.53 µM); 0.926 in the assay with IU1-47 + Crizotinib (first compound 8 µM); 0.169 in the assay with IU1-47 + Pemetrexed (first compound 0.08 µM); 0.129 in the assay with IU1-47 + Pemetrexed (first compound 0.253 µM). In addition, the relative viability was found to be 0.171 with IU1-47 + Pemetrexed (first compound 0.8 µM); 0.153 in the assay with IU1-47 + Pemetrexed (first compound 2.53 µM); 0.144 with IU1-47 + Pemetrexed (first compound 8 µM); 0.871 with FG-4592 + OSI-027 (first compound 0.08 µM); 0.655 with FG-4592 + OSI-027 (first compound 0.253 µM); 0.855 with FG-4592 + OSI-027 (first compound 0.8 µM). Besides, the relative viability with FG-4592 + OSI-027 (first compound 2.53 µM) is 0.747; in the assay with FG-4592 + OSI-027 (first compound 8 µM), 0.494.

With RERF-LC-KJ, the relative viability in the assay with IU1-47 + Luminespib (first compound 0.08 µM) was found to be 1.22; in the assay with IU1-47 + Luminespib (first compound 0.253 µM), 1.3; with IU1-47 + Luminespib (first compound 0.8 µM), 1.34; in the assay with IU1-47 + Luminespib (first compound 2.53 µM), 1.24; with IU1-47 + Luminespib (first compound 8 µM) it was 1.39; with IU1-47 + Crizotinib (first compound 0.08 µM) it was 0.805. Further, the relative viability turned out to be 0.86 with IU1-47 + Crizotinib (first compound 0.253 µM); 0.787 with IU1-47 + Crizotinib (first compound 0.8 µM); 0.848 in the assay with IU1-47 + Crizotinib (first compound 2.53 µM); 0.884 with IU1-47 + Crizotinib (first compound 8 µM); 0.503 with IU1-47 + Pemetrexed (first compound 0.08 µM); 0.454 in the assay with IU1-47 + Pemetrexed (first compound 0.253 µM). The relative viability with IU1-47 + Pemetrexed (first compound 0.8 µM) is 0.523; with IU1-47 + Pemetrexed (first compound 2.53 µM), 0.389; with IU1-47 + Pemetrexed (first compound 8 µM) it was 0.479; in the assay with FG-4592 + OSI-027 (first compound 0.08 µM), 0.606; with FG-4592 + OSI-027 (first compound 0.253 µM) it was 0.503; with FG-4592 + OSI-027 (first compound 0.8 µM), 0.565. The relative viability worked out at 0.505 in the assay with FG-4592 + OSI-027 (first compound 2.53 µM) and 0.567 in the assay with FG-4592 + OSI-027 (first compound 8 µM).

Regarding SK-LU-1, the relative viability with IU1-47 + Luminespib (first compound 0.08 µM) was determined as 0.202; with IU1-47 + Luminespib (first compound 0.253 µM), 0.197; in the assay with IU1-47 + Luminespib (first compound 0.8 µM), 0.204; in the assay with IU1-47 + Luminespib (first compound 2.53 µM) it was 0.238; with IU1-47 + Luminespib (first compound 8 µM), 0.207; with IU1-47 + Crizotinib (first compound 0.08 µM), 0.975. In addition, the relative viability with IU1-47 + Crizotinib (first compound 0.253 µM) was found to be 0.912; in the assay with IU1-47 + Crizotinib (first compound 0.8 µM), 0.963; in the assay with IU1-47 + Crizotinib (first compound 2.53 µM), 0.996; with IU1-47 + Crizotinib (first compound 8 µM), 0.814; with IU1-47 + Pemetrexed (first compound 0.08 µM), 0.981; with IU1-47 + Pemetrexed (first compound 0.253 µM), 1.05. Moreover, the relative viability with IU1-47 + Pemetrexed (first compound 0.8 µM) was 1.03; in the assay with IU1-47 + Pemetrexed (first compound 2.53 µM), 1.02; with IU1-47 + Pemetrexed (first compound 8 µM), 0.887; in the assay with FG-4592 + OSI-027 (first compound 0.08 µM), 0.3; in the assay with FG-4592 + OSI-027 (first compound 0.253 µM) it was 0.177; with FG-4592 + OSI-027 (first compound 0.8 µM) it was 0.349. For the same cell line, the relative viability with FG-4592 + OSI-027 (first compound 2.53 µM) was determined as 0.345; in the assay with FG-4592 + OSI-027 (first compound 8 µM), 0.239.

In the case of SK-MES-1, the relative viability in the assay with IU1-47 + Luminespib (first compound 0.08 µM) is 0.965; with IU1-47 + Luminespib (first compound 0.253 µM) it was 0.891; with IU1-47 + Luminespib (first compound 0.8 µM) it was 0.87; in the assay with IU1-47 + Luminespib (first compound 2.53 µM) it was 0.897; in the assay with IU1-47 + Luminespib (first compound 8 µM), 0.839; with IU1-47 + Crizotinib (first compound 0.08 µM) it was 1.08. The relative viability with IU1-47 + Crizotinib (first compound 0.253 µM) worked out at 1.04; with IU1-47 + Crizotinib (first compound 0.8 µM), 0.908; with IU1-47 + Crizotinib (first compound 2.53 µM), 0.984; in the assay with IU1-47 + Crizotinib (first compound 8 µM), 0.994; with IU1-47 + Pemetrexed (first compound 0.08 µM), 0.95; with IU1-47 + Pemetrexed (first compound 0.253 µM), 1.05. Also, the relative viability with IU1-47 + Pemetrexed (first compound 0.8 µM) was 0.97; with IU1-47 + Pemetrexed (first compound 2.53 µM) it was 0.993; in the assay with IU1-47 + Pemetrexed (first compound 8 µM) it was 0.854; with FG-4592 + OSI-027 (first compound 0.08 µM) it was 0.568; with FG-4592 + OSI-027 (first compound 0.253 µM), 0.585; in the assay with FG-4592 + OSI-027 (first compound 0.8 µM), 0.546. Moreover, the figures for the relative viability in the assay with FG-4592 + OSI-027 (first compound 2.53 µM) and with FG-4592 + OSI-027 (first compound 8 µM) were 0.483 and 0.453, respectively.

On to SW 1573, for which the relative viability came out at 0.196 in the assay with IU1-47 + Luminespib (first compound 0.08 µM); 0.179 in the assay with IU1-47 + Luminespib (first compound 0.253 µM); 0.129 with IU1-47 + Luminespib (first compound 0.8 µM); 0.261 in the assay with IU1-47 + Luminespib (first compound 2.53 µM); 0.23 with IU1-47 + Luminespib (first compound 8 µM); 0.728 with IU1-47 + Crizotinib (first compound 0.08 µM). The relative viability with IU1-47 + Crizotinib (first compound 0.253 µM) is 0.796; with IU1-47 + Crizotinib (first compound 0.8 µM), 0.761; with IU1-47 + Crizotinib (first compound 2.53 µM) it was 0.859; with IU1-47 + Crizotinib (first compound 8 µM), 0.903; with IU1-47 + Pemetrexed (first compound 0.08 µM) it was 0.935; with IU1-47 + Pemetrexed (first compound 0.253 µM), 0.912. In addition, the relative viability with IU1-47 + Pemetrexed (first compound 0.8 µM) stood at 0.766; in the assay with IU1-47 + Pemetrexed (first compound 2.53 µM), 0.657; with IU1-47 + Pemetrexed (first compound 8 µM) it was 0.749; with FG-4592 + OSI-027 (first compound 0.08 µM), 0.556; in the assay with FG-4592 + OSI-027 (first compound 0.253 µM), 0.537; with FG-4592 + OSI-027 (first compound 0.8 µM), 0.63. Besides, the relative viability in the assay with FG-4592 + OSI-027 (first compound 2.53 µM) is 0.536; with FG-4592 + OSI-027 (first compound 8 µM) it was 0.561.

Regarding UMC-11, the relative viability in the assay with IU1-47 + Luminespib (first compound 0.08 µM) is 1.08; with IU1-47 + Luminespib (first compound 0.253 µM), 0.974; with IU1-47 + Luminespib (first compound 0.8 µM) it was 1.09; with IU1-47 + Luminespib (first compound 2.53 µM) it was 1.06; in the assay with IU1-47 + Luminespib (first compound 8 µM), 0.938; with IU1-47 + Crizotinib (first compound 0.08 µM), 0.564. The relative viability with IU1-47 + Crizotinib (first compound 0.253 µM) was determined as 0.641; with IU1-47 + Crizotinib (first compound 0.8 µM), 0.476; in the assay with IU1-47 + Crizotinib (first compound 2.53 µM), 0.673; with IU1-47 + Crizotinib (first compound 8 µM) it was 0.574; with IU1-47 + Pemetrexed (first compound 0.08 µM) it was 0.777; with IU1-47 + Pemetrexed (first compound 0.253 µM), 0.716. Further, the relative viability with IU1-47 + Pemetrexed (first compound 0.8 µM) amounted to 0.811; in the assay with IU1-47 + Pemetrexed (first compound 2.53 µM), 0.903; with IU1-47 + Pemetrexed (first compound 8 µM) it was 0.796; with FG-4592 + OSI-027 (first compound 0.08 µM), 0.466; with FG-4592 + OSI-027 (first compound 0.253 µM), 0.529; with FG-4592 + OSI-027 (first compound 0.8 µM) it was 0.498. Further, the relative viability is 0.461 with FG-4592 + OSI-027 (first compound 2.53 µM) and 0.441 with FG-4592 + OSI-027 (first compound 8 µM).
